The values below come from patent US11370774B2, “Substituted benzofuran, benzopyrrole, benzothiophene, and structurally related complement inhibitors” (BioCryst Pharmaceuticals, Inc., priority 2018, dated 2022).

This assay deals with Factor D (Homo sapiens (Human), UniProt P00746). As to the kind of experiment: Factor D esterolytic assay (Z-Lys-SBzl substrate, DTNB, 405 nm). To be noted: Z-Lys-SBzl 1.29 mM, pH 7.5, 10% DMSO, tested a minimum of three times, read-out: Measured Ki (IC50) Value for Compounds: IC50. In kind it is biochemical. Put shortly: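 Thioester hydrolysis (Z-Lys-SBzl, 1.29 mM) by human Factor D ([…]) detected through DTNB color at 405 nm over 600 sec, minus 690 nm background. Buffer: 100 mM HEPES pH 7.5, 500 mM NaCl, 10% DMSO; optional room-temperature preincubation before substrate. IC50 derived from percent rate inhibition; at least three runs.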
Chain of Factor D (P00746 26-253): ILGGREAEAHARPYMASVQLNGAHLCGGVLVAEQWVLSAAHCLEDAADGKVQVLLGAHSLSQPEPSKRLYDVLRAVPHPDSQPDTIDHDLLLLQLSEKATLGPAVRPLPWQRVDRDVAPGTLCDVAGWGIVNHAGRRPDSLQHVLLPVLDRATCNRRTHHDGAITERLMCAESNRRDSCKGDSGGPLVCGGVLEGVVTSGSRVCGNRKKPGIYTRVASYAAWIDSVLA
Consider `NCc1cccc(-c2cc(COc3ccccc3CC(=O)O)cn3ccnc23)c1` [Compound 102g, 2-(2-((8-(3-(aminomethyl)phenyl)imidazo[1,2-a]pyridin-6-yl)methoxy)phenyl)acetic acid], for which the IC50 (in general, the concentration needed to halve the response being measured) is under 1000 nM. Take `NCc1cccc(-c2cc(COc3ccccc3CC(=O)O)cc3cc(C(O)C(F)(F)F)oc23)c1` (stereo not drawn) [Compound 103d, 2-(2-((7-(3-(aminomethyl)phenyl)-2-(2,2,2-trifluoro-1-hydroxyethyl)benzofuran-5-yl)methoxy)phenyl)acetic acid]: the IC50 was under 1000 nM.

Take `CC(C)(O)c1cc2cc(COc3ccccc3CC(=O)O)cc(-c3cccc(CN)c3)c2o1` [Compound 104e, 2-(2-((7-(3-(aminomethyl)phenyl)-2-(2-hydroxypropan-2-yl)benzofuran-5-yl)methoxy)phenyl)acetic acid]: the IC50 was under 1000 nM. Turning to `NCc1cccc(-c2cc(COc3ccccc3CC(=O)O)cc3cc(C(O)C4CC4)oc23)c1` (stereo not drawn) [Compound 105c, 2-(2-((7-(3-(aminomethyl)phenyl)-2-(cyclopropyl(hydroxy)methyl)benzofuran-5-yl)methoxy)phenyl)acetic acid], the IC50 was under 1000 nM. As to `NCc1cncc(-c2cc(COc3ccccc3CC(=O)O)cc3ccoc23)c1` [Compound 106c, 2-(2-((7-(5-(aminomethyl)pyridin-3-yl)benzofuran-5-yl)methoxy)phenyl)acetic acid], the IC50 lay within 1000 to 10000 nM. With `NCc1cccc(-c2cc(COc3ccccc3CC(=O)O)cc3nccn23)c1` [Compound 107f, 2-(2-((5-(3-(aminomethyl)phenyl)imidazo[1,2-a]pyridin-7-yl)methoxy)phenyl)acetic acid], the IC50 was under 1000 nM. Take `CC(C)c1cc2cc(COc3ccccc3CC(=O)O)cc(-c3cccc(CN)c3)c2o1` [Compound 108f, 2-(2-((7-(3-(aminomethyl)phenyl)-2-isopropylbenzofuran-5-yl)methoxy)phenyl)acetic acid]: the IC50 is under 1000 nM. Take `CC(C)n1ccc2c(-c3cccc(CN)c3)cc(COc3ccccc3CC(=O)O)cc21` [Compound 109g, 2-(2-((4-(3-(aminomethyl)phenyl)-1-isopropyl-1H-indol-6-yl)methoxy)phenyl)acetic acid]: the IC50 was under 1000 nM. Then `NCc1ccnc(-c2cc(COc3ccccc3CC(=O)O)cc3ccoc23)c1` [Compound 110c, 2-(2-((7-(4-(aminomethyl)pyridin-2-yl)benzofuran-5-yl)methoxy)phenyl)acetic acid], with under 1000 nM; and `CC(C)n1ccc2c(-c3cccc(CN)c3F)cc(COc3ccccc3CC(=O)O)cc21` [Compound 111b, 2-(2-((4-(3-(aminomethyl)-2-fluorophenyl)-1-isopropyl-1H-indol-6-yl)methoxy)phenyl)acetic acid], with under 1000 nM. The result for `Cc1cc2cc(COc3ccccc3CC(=O)O)cc(-c3ccnc(CN)c3)c2o1` [Compound 112c, 2-(2-((7-(2-(aminomethyl)pyridin-4-yl)-2-methylbenzofuran-5-yl)methoxy)phenyl)acetic acid] reads under 1000 nM. Take `Cc1cc2cc(COc3ccccc3CC(=O)O)cc(-c3ccnc(CN)c3F)c2o1` [Compound 113c, 2-(2-((7-(2-(aminomethyl)-3-fluoropyridin-4-yl)-2-methylbenzofuran-5-yl)methoxy)phenyl)acetic acid]: the IC50 is under 1000 nM. Take `NCc1cccc(-c2cc(COc3ccccc3CC(=O)O)cc3c(N)noc23)c1` [Compound 114j, 2-(2-((3-amino-7-(3-(aminomethyl)phenyl)benzo[d]isoxazol-5-yl)methoxy)phenyl)acetic acid]: the IC50 is under 1000 nM. Then `NCc1cccc(-c2cc(COc3ccccc3CC(=O)O)cc3occc23)c1` [Compound 115f, 2-(2-((4-(3-(aminomethyl)phenyl)benzofuran-6-yl)methoxy)phenyl)acetic acid], with under 1000 nM; and `NCc1cccc(-c2cc(COc3ccccc3CC(=O)O)cc3sccc23)c1` [Compound 116f, 2-(2-((4-(3-(aminomethyl)phenyl)benzo[b]thiophen-6-yl)methoxy)phenyl)acetic acid], with under 1000 nM; and `NCc1cccc(-c2cc(COc3ccccc3CC(=O)O)cc3sccc23)c1F` [Compound 117b, 2-(2-((4-(3-(aminomethyl)-2-fluorophenyl)benzo[b]thiophen-6-yl)methoxy)phenyl)acetic acid], with under 1000 nM. Take `CC(C)n1ccc2c(-c3ccnc(CN)c3)cc(COc3ccccc3CC(=O)O)cc21` [Compound 118c, 2-(2-((4-(2-(aminomethyl)pyridin-4-yl)-1-isopropyl-1H-indol-6-yl)methoxy)phenyl)acetic acid]: the half-inhibitory concentration (IC50) is under 1000 nM. As to `NCc1cccc(-c2cc(COc3ccccc3CC(=O)O)nc3ccoc23)c1` [Compound 119e, 2-(2-((7-(3-(aminomethyl)phenyl)furo[3,2-b]pyridin-5-yl)methoxy)phenyl)acetic acid], the IC50 was under 1000 nM. For `COCc1cc2cc(COc3ccccc3CC(=O)O)cc(-c3ccnc(CN)c3F)c2o1` [Compound 120c, 2-(2-((7-(2-(aminomethyl)-3-fluoropyridin-4-yl)-2-(methoxymethyl)benzofuran-5-yl)methoxy)phenyl)acetic acid], the IC50 is under 1000 nM.

For the molecule `CC(C)n1ccc2c(-c3ccnc(CN)c3F)cc(COc3ccccc3CC(=O)O)cc21` [Compound 121b, 2-(2-((4-(2-(aminomethyl)-3-fluoropyridin-4-yl)-1-isopropyl-1H-indol-6-yl)methoxy)phenyl)acetic acid], the IC50 was under 1000 nM. Turning to `NCc1cccc(-c2cc(COc3ccccc3CC(=O)O)cc3occc23)c1F` [Compound 122b, 2-(2-((4-(3-(aminomethyl)-2-fluorophenyl)benzofuran-6-yl)methoxy)phenyl)acetic acid], the IC50 was under 1000 nM. On to `NCc1cc(-c2cc(COc3ccccc3CC(=O)O)cc3occc23)ccn1` [Compound 123d, 2-(2-((4-(2-(aminomethyl)pyridin-4-yl)benzofuran-6-yl)methoxy)phenyl)acetic acid], for which the half-inhibitory concentration (IC50) is under 1000 nM. Take `NCc1cccc(-c2cc(COc3ccccc3CC(=O)O)cc3[nH]ncc23)c1F` [Compound 124g, 2-(2-((4-(3-(aminomethyl)-2-fluorophenyl)-1H-indazol-6-yl)methoxy)phenyl)acetic acid]: the IC50 is under 1000 nM. As for `NCc1cccc(-c2cc(C(=O)Nc3ccccc3CC(=O)O)cn3ccnc23)c1` [Compound 125c, 2-(2-(8-(3-(aminomethyl)phenyl)imidazo[1,2-a]pyridine-6-carboxamido)phenyl)acetic acid], the IC50 is over 10000 nM. Turning to `NCc1cccc(-c2cc(COc3ccccc3CC(=O)O)cc3c2cnn3CC2CC2)c1` [Compound 126h, 2-(2-((4-(3-(aminomethyl)phenyl)-1-(cyclopropylmethyl)-1H-indazol-6-yl)methoxy)phenyl)acetic acid], the IC50 is under 1000 nM. For `NCc1cccc(-c2cc(COc3ccccc3CC(=O)O)cc3c2cnn3CC2CC2)c1F` [Compound 127b, 2-(2-((4-(3-(aminomethyl)-2-fluorophenyl)-1-(cyclopropylmethyl)-1H-indazol-6-yl)methoxy)phenyl)acetic acid], the IC50 was under 1000 nM. Take `Cn1ncc2c(-c3cccc(CN)c3F)cc(COc3ccccc3CC(=O)O)cc21` [Compound 128g, 2-(2-((4-(3-(aminomethyl)-2-fluorophenyl)-1-methyl-1H-indazol-6-yl)methoxy)phenyl)acetic acid]: the IC50 is under 1000 nM.
